Results: US11911178B2, “System and method to detect and treat arrhythmogenic regions in atrial fibrillation” (Northwestern University, priority 2020, dated 2024)

Test system: atrial fibrillation
Test: open chest epicardial electrogram mapping of atrial fibrillation in animals at baseline and after ROS scavenger (NAC) administration
Assay type: in vivo
Protocol: In an illustrative embodiment, the proposed method and system involve use of an electrogram to monitor a patient's heart characteristics. An electrode recording system can be used to receive and store baseline electrogram signals from the heart of the patient during sinus rhythm. As discussed in more detail below, mapping is performed based on the received electrogram signals to generate high resolution maps in multiple atrial regions of the patient. A reactive oxygen species scavenger (e.g., NAC) is then administered to the patient. The electrogram is used to measure various characteristics of the heart after administration of the ROS scavenger. These characteristics can include dominant frequency (DF), cycle length (CL), organization index (OI), fractionation index (FI), recurrence morphology percentage (Rec %), Shannon's entropy (ShEn), conduction velocity, and voltage. The monitored characteristics can also include the number and stability of rotational, focal, and wavelet activities in different atrial regions of the heart. The various atrial regions of the heart can include posterior left atrium (PLA), left atrial free wall (LAFW), left atrial appendage (LAA), posterior right atrium (PRA), right atrial free wall (RAFW), right atrial appendage (RAA), etc. In alternative embodiments, different heart regions may be used.
In an illustrative embodiment, the proposed system uses a computing system to perform calculation of percentage changes of AF characteristics at each electrogram electrode location at different time intervals subsequent to administration of the ROS scavenger. The percentage changes are based on the baseline readings from the electrogram (i.e., the readings received prior to administration of the ROS scavenger). For example, the calculations of percentage changes can be after 30 minutes, 1 hour, and 2 hours in one embodiment. Alternatively, different or additional times may be used, such as 45 minutes, 1.5 hours, 3 hours, 4 hours, etc. In some implementations, rebolus of the ROS scavenger administration may be performed in between the time periods.
Referring to FIG. 2B, a baseline measurement for each of a plurality of characteristics is obtained using the electrogram system in an operation 230. The baseline measurements are measured prior to administration of the ROS scavenger in an operation 235, and mapping of the various characteristics is performed based on the measured characteristics in an operation 240. Any of the characteristics described herein can be used. The system continues conducting measurements using the electrogram at various periods of time subsequent to administration of the ROS scavenger, such as 30 minutes, 1 hour, 2 hours, etc. The system also calculates the percentage change for each of the measured characteristics at each of the periods of time, as compared to the baseline measurements in an operation 245. Hotspots are identified for each measured characteristic based on the percentage changes in the operation 245. In one embodiment, the determined percentage changes are compared to a percentage change threshold to determine whether a given area is a hotspot. The percentage change threshold can be 5%, 8%, 10%, 20%, etc. depending on the implementation. Alternatively, instead of basing the determination on the percentage change, the determination of whether an area is a hotspot can be based on the amount of absolute change in the measured characteristic, and can vary for each characteristic. Based on the identified hotspots, the system also calculates the percentage of overlap among the various hotspots from each of the characteristics in an operation 250. The system maps the overlapping hotspots (based on the percentage of overlap) so that they can be visualized in an operation 255, and the overlapping hotspots are then targeted for treatment.
Experiments were conducted on animals using the techniques described herein. […]

## CC(=O)N[C@@H](CS)C(=O)O [NAC, N-acetylcysteine]
Animal 1, LAFW, 1 hour after administration
  mapping field showing hotspot overlap in >50% of the EGM measures: 36%
Animal 1, LAFW, 2 hours after administration
  mapping field showing hotspot overlap in >50% of the EGM measures: 13%
Animal 8, LAFW, 1 hour after administration
  mapping field showing hotspot overlap in >50% of the EGM measures: 15%
Animal 8, LAFW, (2) hours after administration
  mapping field showing hotspot overlap in >50% of the EGM measures: 48%
LAFW and PLA, 1 hour after NAC, baseline peak 11.5 Hz, histogram of all 10 hearts
  DF peak: 9 Hz
LAFW and PLA, 2 hours after NAC, baseline peak 11.5 Hz, histogram of all 10 hearts
  DF peak: 7.5 Hz
LAFW, after NAC administration
  stability of observed 360 degree rotations in activation maps: significantly decreased
RAA, after 1 hr NAC, baseline peak 8.5 Hz
  DF peak: 7.5 Hz
After NAC administration
  rotational source: reduced
Percentage change threshold 5%, Animal 1, 1 hour after administration
  mapping field with overlap in more than 50% of the electrogram measurements: 19%
Percentage change threshold 5%, Animal 1, 2 hours after administration
  mapping field with overlap in more than 50% of the electrogram measurements: 27%
Percentage change threshold 5%, Animal 8, 1 hour after administration
  mapping field with overlap in more than 50% of the electrogram measurements: 17%
Percentage change threshold 5%, Animal 8, 2 hours after administration
  mapping field with overlap in more than 50% of the electrogram measurements: 47%
Percentage change threshold 20%, Animal 1, after 1 hour
  mapping field with overlap in more than 50% of the electrogram measurements: 2%
Percentage change threshold 20%, Animal 1, after 2 hours
  mapping field with overlap in more than 50% of the electrogram measurements: 7%
Percentage change threshold 20%, Animal 8, after 1 hour
  mapping field with overlap in more than 50% of the electrogram measurements: 6%
Percentage change threshold 20%, Animal 8, after 2 hours
  mapping field with overlap in more than 50% of the electrogram measurements: 29%
